Drawing on ChEMBL document CHEMBL3751841, “Synthesis of carboxyimidamide-substituted benzo[c][1,2,5]oxadiazoles and their analogs, and evaluation of biological activity against Leishmania donovani” (Medchemcomm, 2015), this text covers EC50, inhibition of growth and selectivity ratio for 26 molecules.

pEC50: −log10 of the molar value.

Series [1] in a line: Cytotoxicity against human THP1 cells assessed as reduction in cell viability after 48 hrs by alamar blue dye based assay. The note with it: THP-1, 48 h. In general terms: The colour change of resazurin is a common sign of viable cells or microbes.
Series [2] has as its system Leishmania donovani. Briefly: Antileishmanial activity against luciferase expressing Leishmania donovani intracellular amastigotes infected in human THP1 cells assessed as inhibition of parasite growth after 48 hrs by Bright-glo luciferase assay. The class given is functional, organism-based. The conditions noted are these: THP-1, 48 h.
The subject of series [3] is Leishmania donovani. The series is described as follows: Antileishmanial activity against Leishmania donovani MHOM/SD/1962/1S-Cl2d axenic amastigotes assessed as inhibition of parasite growth at 5 uM after 24 hrs by alamar blue staining based fluorescent viability microplate assay. The conditions noted are these: read-out: GI. The class given is functional.
Series [4] has as its system Leishmania donovani. The series is described as follows: Antileishmanial activity against Leishmania donovani MHOM/SD/1962/1S-Cl2d axenic amastigotes assessed as inhibition of parasite growth at 50 uM after 24 hrs by alamar blue staining based fluorescent viability microplate assay. The class given is functional. The conditions noted are these: read-out: GI.
Series [5] is described as follows: Cytotoxicity against mouse NIH/3T3 cells assessed as reduction in cell viability after 48 hrs by alamar blue dye based assay. The note with it: NIH3T3, 48 h.
Series [6] is described as follows: Selectivity index, ratio of EC50 for mouse NIH/3T3 cells to EC50 for Leishmania donovani […] amastigotes. The class given is toxicity, cell-based. The note with it: read-out: Ratio EC50.
Series [7] can be described thus: Selectivity index, ratio of EC50 for human THP1 cells to EC50 for Leishmania donovani axenic amastigotes. The class given is toxicity, cell-based, THP-1. The note with it: THP1 cells versus Leishmania donovani axenic amastigotes, read-out: Ratio EC50.
Series [8] concerns Leishmania donovani. Briefly: Antileishmanial activity against Leishmania donovani MHOM/SD/1962/1S-Cl2d axenic amastigotes assessed as inhibition of parasite growth after 24 hrs by alamar blue staining based fluorescent viability microplate assay. The class given is functional, organism-based.
The subject of series [9] is Leishmania donovani. The series is described as follows: Antileishmanial activity against luciferase expressing Leishmania donovani intracellular amastigotes infected in human THP1 cells assessed as inhibition of parasite growth at 5 uM after 48 hrs by Bright-glo luciferase assay. The conditions noted are these: THP-1, 48 h, read-out: GI. The class given is functional.

Series [10] relates to Leishmania donovani. The series is described as follows: Antileishmanial activity against Leishmania donovani MHOM/SD/1962/1S-Cl2d axenic amastigotes assessed as inhibition of parasite growth at 15 uM after 24 hrs by alamar blue staining based fluorescent viability microplate assay. The class given is functional. The note with it: read-out: GI.
The subject of series [11] is Leishmania donovani. The series is described as follows: Antileishmanial activity against Leishmania donovani MHOM/SD/1962/1S-Cl2d axenic amastigotes assessed as inhibition of parasite growth at 1 uM after 24 hrs by alamar blue staining based fluorescent viability microplate assay. The class given is functional. The note with it: read-out: GI.
Series [12] deals with Leishmania donovani. Briefly: Antileishmanial activity against luciferase expressing Leishmania donovani intracellular amastigotes infected in human THP1 cells assessed as inhibition of parasite growth at 1 uM after 48 hrs by Bright-glo luciferase assay. The class given is functional. The note with it: THP-1, 48 h, read-out: GI.

Turning to `N=C(NOC(=O)Nc1cccc(Cl)c1)c1ccc2nonc2c1`, the negative logarithm of the EC50 (pEC50) was 4.10 in series [1], 5.23 in series [2], below 3.52 in [5] and 5.38 in [8]. In addition, the inhibition of growth at 5 µM in [3] amounted to 43.4%; in [9], 33.1%. In series [4], the inhibition of growth at 50 µM was determined as 94.8%. In addition, the selectivity ratio in series [6] was above 71.4; in series [7] it was 19. In [10], the inhibition of growth at 15 µM is 87.2%.

In the case of `N=C(NOC(=O)Nc1ccccc1)c1ccc2nonc2c1`, in [4], the inhibition of growth at 50 µM was 70.1%. Moreover, the inhibition of growth at 15 µM in series [10] came to 24.2%.

For the molecule `Cc1ccc(NC(=O)O/N=C(\N)c2ccc3nonc3c2)cc1`, in series [4], the inhibition of growth at 50 µM was 64.1%.

With `N/C(=N\OC(=O)Nc1ccccc1)c1ccc2[nH]ccc2c1`, the inhibition of growth at 50 µM in series [4] was 91.9%. Also, in [10], the inhibition of growth at 15 µM came out at 21.6%.

Consider `N/C(=N\OC(=O)Nc1ccccc1)c1ccc2ccccc2c1`, for which the inhibition of growth at 50 µM in [4] stood at 98.8%. Besides, the inhibition of growth at 15 µM in [10] is 24.9%.

For `N/C(=N\OC(=O)Nc1ccccc1)c1ccc2occc2c1`, the inhibition of growth at 50 µM in series [4] came out at 95.2%. Moreover, in [10], the inhibition of growth at 15 µM stood at 48%.

For the molecule `N/C(=N\OC(=O)Cc1ccccc1)c1ccc2nonc2c1`, in series [4], the inhibition of growth at 50 µM stood at 22.4%.

As for `N/C(=N\OC(=O)NC1CCCCC1)c1ccc2nonc2c1`, the inhibition of growth at 50 µM in series [4] is 43.9%.

For the molecule `COc1cccc(NC(=O)O/N=C(\N)c2ccc3nonc3c2)c1`, the inhibition of growth at 50 µM in series [4] was found to be 71.4%. Besides, the inhibition of growth at 15 µM in series [10] turned out to be 31.8%.

Regarding `Cc1cccc(NC(=O)O/N=C(\N)c2ccc3nonc3c2)c1`, the inhibition of growth at 50 µM in [4] amounted to 67.2%. Moreover, the inhibition of growth at 15 µM in [10] turned out to be 44.6%.

As for `N/C(=N\OC(=O)Nc1ccc(Cl)cc1)c1ccc2nonc2c1`, the inhibition of growth at 50 µM in series [4] amounted to 44%.

Take `N/C(=N\OC(=O)Oc1ccccc1)c1ccc2nonc2c1`: in series [4], the inhibition of growth at 50 µM worked out at 26.5%.

For the molecule `Cc1ccccc1NC(=O)O/N=C(\N)c1ccc2nonc2c1`, the inhibition of growth at 50 µM in series [4] came out at 42%.

On to `N/C(=N\OC(=O)c1ccccc1)c1ccc2nonc2c1`, for which the inhibition of growth at 50 µM in series [4] is 51.1%.

Consider `N/C(=N\OC(=O)Nc1cccc(C(F)(F)F)c1)c1ccc2nonc2c1`, for which, in series [4], the inhibition of growth at 50 µM worked out at 51.4%.

For `N/C(=N\OC(=O)Nc1ccccc1)c1ccc2[nH]cnc2c1`, in series [4], the inhibition of growth at 50 µM is 72%.

Consider `N/C(=N\OC(=O)Nc1ccccc1Cl)c1ccc2nonc2c1`, for which the inhibition of growth at 50 µM in [4] was found to be 29.6%.

On to `N/C(=N\OC(=O)Nc1ccccc1)c1ccc2c(c1)OCO2`, for which, in [4], the inhibition of growth at 50 µM came out at 93%. For the same molecule, the inhibition of growth at 15 µM in series [10] came to 33.9%.

As to `COc1ccccc1NC(=O)O/N=C(\N)c1ccc2nonc2c1`, in series [4], the inhibition of growth at 50 µM was found to be 38%.

Take `N/C(=N\OC(=O)Nc1ccc(C(F)(F)F)cc1)c1ccc2nonc2c1`: the inhibition of growth at 50 µM in series [4] stood at 51.7%.

As to `N/C(=N\OC(=O)Nc1ccccc1)c1ccccc1`, the inhibition of growth at 50 µM in [4] is 78.4%. Besides, the inhibition of growth at 15 µM in [10] was 5.4%.

Consider `N/C(=N\OC(=O)Nc1ccccc1C(F)(F)F)c1ccc2nonc2c1`, for which the inhibition of growth at 50 µM in [4] stood at 42.1%.

Consider `O=C(Nc1ccccc1)ONC(=O)c1ccc2nonc2c1`, for which the negative-log EC50 (pEC50) in series [1] is 4.47; in [5] it was below 3.52; in series [8], 5.09. Further, the inhibition of growth at 5 µM in series [3] is 54.6%; in [9] it was 19.9%. In addition, in series [4], the inhibition of growth at 50 µM amounted to 96.2%. Also, the selectivity ratio is above 37 in series [6] and 4.2 in series [7]. In addition, the inhibition of growth at 15 µM in [10] turned out to be 68.2%.

In the case of `COc1ccc(NC(=O)O/N=C(\N)c2ccc3nonc3c2)cc1`, the inhibition of growth at 50 µM in series [4] stood at 46%.

Regarding `N/C(=N\OC(=O)Nc1ccccc1)c1ccc2sccc2c1`, the inhibition of growth at 50 µM in [4] was 97.9%. Also, in [10], the inhibition of growth at 15 µM was found to be 35.2%.

Regarding `C[C@@H]1[C@H](O)[C@@H](C)/C=C/C=C/C=C/C=C/C=C/C=C/C=C/[C@H](O[C@@H]2O[C@H](C)[C@@H](O)[C@H](N)[C@@H]2O)C[C@@H]2O[C@](O)(C[C@@H](O)C[C@@H](O)[C@H](O)CC[C@@H](O)C[C@@H](O)CC(=O)O[C@H]1C)C[C@H](O)[C@H]2C(=O)O` [AMPHOTERICIN B], the pEC50 was 5.68 in series [1], 6.96 in series [2] and 5.66 in series [5]. For the same molecule, the inhibition of growth at 1 µM is 99.7% in series [11] and above 90% in [12].

As a reminder, the pEC50 is the negative decadic logarithm of the EC50, by convention in mol/L.
